The source of these data is patent publication US20250197374A1, “WEE1 DEGRADING COMPOUNDS AND USES THEREOF” (BRISTOL-MYERS SQUIBB COMPANY, priority 2023, published 2025).

Common to all, as to format: cell-based
In one assay the target is T1, WEE1 (Homo sapiens, UniProt P30291+Q96SW2).
T1 construct: C-terminal ePL-tagged (DiscoverX, Fremont, CA) full-length WEE1 expression construct; expressed in transfected cells; host or cells: LentiX-HEK293T (Invitrogen), lentivirally transduced; the cells also over-express GSPT1-GN
T1 sequence (P30291 whole entry): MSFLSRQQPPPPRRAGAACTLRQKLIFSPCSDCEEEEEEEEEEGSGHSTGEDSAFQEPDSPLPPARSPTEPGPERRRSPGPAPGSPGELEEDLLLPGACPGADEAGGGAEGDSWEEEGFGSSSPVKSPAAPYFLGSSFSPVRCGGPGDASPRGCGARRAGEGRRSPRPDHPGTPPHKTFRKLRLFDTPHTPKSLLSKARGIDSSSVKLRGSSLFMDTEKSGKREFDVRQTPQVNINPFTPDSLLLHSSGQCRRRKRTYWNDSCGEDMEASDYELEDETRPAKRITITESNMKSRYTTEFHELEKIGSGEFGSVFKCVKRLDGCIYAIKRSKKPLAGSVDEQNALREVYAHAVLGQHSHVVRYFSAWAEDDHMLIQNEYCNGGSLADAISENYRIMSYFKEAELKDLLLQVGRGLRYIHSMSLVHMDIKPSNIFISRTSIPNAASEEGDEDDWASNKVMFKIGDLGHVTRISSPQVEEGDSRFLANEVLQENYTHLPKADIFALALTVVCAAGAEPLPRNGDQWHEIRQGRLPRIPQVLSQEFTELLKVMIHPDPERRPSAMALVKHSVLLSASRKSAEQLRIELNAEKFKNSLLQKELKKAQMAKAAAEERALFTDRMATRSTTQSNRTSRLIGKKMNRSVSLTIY
T1 sequence (Q96SW2 whole entry): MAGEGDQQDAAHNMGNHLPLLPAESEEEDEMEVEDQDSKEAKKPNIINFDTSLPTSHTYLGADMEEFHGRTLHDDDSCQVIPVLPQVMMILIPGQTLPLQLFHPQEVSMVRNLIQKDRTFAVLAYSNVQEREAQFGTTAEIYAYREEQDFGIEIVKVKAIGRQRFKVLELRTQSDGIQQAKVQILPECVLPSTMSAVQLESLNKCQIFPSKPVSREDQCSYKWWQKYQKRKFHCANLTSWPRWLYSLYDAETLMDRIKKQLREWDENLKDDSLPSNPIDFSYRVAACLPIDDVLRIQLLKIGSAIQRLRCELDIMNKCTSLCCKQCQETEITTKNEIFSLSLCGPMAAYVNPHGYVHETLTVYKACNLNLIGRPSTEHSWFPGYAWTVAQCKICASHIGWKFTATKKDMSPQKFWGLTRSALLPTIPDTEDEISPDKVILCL
T1 sequence (Q16531 whole entry partner): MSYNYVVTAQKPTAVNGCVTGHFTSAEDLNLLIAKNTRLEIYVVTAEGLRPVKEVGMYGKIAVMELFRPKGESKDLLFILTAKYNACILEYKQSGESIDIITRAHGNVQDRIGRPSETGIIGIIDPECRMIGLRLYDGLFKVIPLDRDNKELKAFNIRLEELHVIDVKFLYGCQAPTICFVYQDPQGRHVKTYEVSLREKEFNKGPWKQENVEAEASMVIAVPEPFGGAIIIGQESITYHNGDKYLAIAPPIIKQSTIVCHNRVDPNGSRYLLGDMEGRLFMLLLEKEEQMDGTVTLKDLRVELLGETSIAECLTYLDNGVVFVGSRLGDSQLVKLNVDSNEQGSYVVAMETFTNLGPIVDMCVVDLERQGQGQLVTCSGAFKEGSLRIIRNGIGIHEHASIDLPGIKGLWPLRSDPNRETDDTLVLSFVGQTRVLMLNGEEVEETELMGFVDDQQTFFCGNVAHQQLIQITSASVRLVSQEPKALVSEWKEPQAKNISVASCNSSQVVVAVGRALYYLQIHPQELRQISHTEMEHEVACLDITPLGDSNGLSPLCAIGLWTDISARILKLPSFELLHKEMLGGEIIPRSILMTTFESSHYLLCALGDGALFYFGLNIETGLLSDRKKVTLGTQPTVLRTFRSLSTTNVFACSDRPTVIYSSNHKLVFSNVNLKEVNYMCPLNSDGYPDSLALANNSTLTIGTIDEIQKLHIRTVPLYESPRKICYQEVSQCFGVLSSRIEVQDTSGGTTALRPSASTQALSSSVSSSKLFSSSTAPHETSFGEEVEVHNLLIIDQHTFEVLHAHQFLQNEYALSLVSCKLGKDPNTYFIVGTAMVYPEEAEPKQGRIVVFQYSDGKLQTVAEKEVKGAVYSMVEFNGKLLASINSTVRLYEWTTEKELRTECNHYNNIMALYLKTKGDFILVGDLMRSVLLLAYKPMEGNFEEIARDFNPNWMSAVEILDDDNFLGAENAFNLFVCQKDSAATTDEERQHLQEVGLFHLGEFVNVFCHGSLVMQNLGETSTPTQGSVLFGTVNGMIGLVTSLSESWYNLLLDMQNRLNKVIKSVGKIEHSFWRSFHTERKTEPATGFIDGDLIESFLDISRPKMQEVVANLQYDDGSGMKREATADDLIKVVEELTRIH
As to the kind of experiment: WEE1-ePL degradation assay (293T-LentiX, InCELL Hunter luminescence, 4 hr). The conditions noted are these: for DC50: LentiX-HEK293T cells expressing WEE1-ePL, 4 hr incubation, read-out: 293T-LentiX WEE1-ePL Degradation 4 hr EC50; for 293T-LentiX WEE1-ePL Degradation 4 hr YMin (%): lower limit of fit, % of DMSO control signal remaining. In a few lines: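 EC50 comes from a four-parameter logistic fit of ePL luminescence (InCELL Hunter), with DMSO control defining Ymax. Compounds ran as 10-point 3-fold dilutions from 1 or 10 µM for 4 h at 37 °C. Cells were HEK293T-LentiX with ePL-tagged full-length WEE1 and over-expressed Cereblon-resistant GSPT1-GN.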

Another assay concerns MKN45 cells. Description: MKN45 cell proliferation assay (Cell-Titer-Glo, 120 hr). The settings on record: for pEC50: read-out: MKN45 Cell Prolif. 120 hr EC50; for MKN45 Cell Prolif. 120 hr YMin (%): minimal percent of DMSO control observed. In a few lines:
(§1)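 Growth inhibition was read as CellTiter-Glo luminescence after 120 h at 37 °C in RPMI/10% FBS, with 400 MKN45 or 800 MDA-MB-231 cells seeded per well. Compounds were tested in 10-point half-log series starting at 1 or 10 uM (0.1% DMSO), in triplicate for MKN45 and duplicate for MDA-MB-231. EC50 values are four-parameter fits to %DMSO control, and Ymin-obs is the minimal observed %DMSO.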

The next assay concerns MDA-MB-231 cells. As to the kind of experiment: MDA-MB-231 cell proliferation assay (Cell-Titer-Glo, 120 hr). The settings on record: for pEC50: read-out: MDA-MB 231 Cell Prolif. 120 hr EC50; for MDA-MB 231 Cell Prolif. 120 hr YMin (%): minimal percent of DMSO control observed. In a few lines:
as §1

The mark [1] stands for this setting: Homo sapiens, MDA-MB-231, 120 h.

pEC50: −log10 of the molar value. Like-named read-outs stand apart in the source and are kept apart here.

In the case of `CC(C)C[C@H]1CN(Cc2cc(F)c3nc(C4CCOCC4)ccc3c2)C[C@@H]1Oc1ccc2c(c1)CN([C@H]1CCC(=O)NC1=O)C2=O` (relative stereo) [Example 148, (3S)-3-(5-{[(3R*,4S*)-1-{[8-fluoro-2-(oxan-4-yl)quinolin-6-yl]methyl}-4-(2-methylpropyl)pyrrolidin-3-yl]oxy}-1-oxo-2,3-dihydro-1H-isoindol-2-yl)piperidine-2,6-dione], at WEE1, the DC50 worked out at 1 nM and the “293T-LentiX WEE1-ePL Degradation 4 hr YMin (%)” value is reported as 28.4%. The pEC50 with MKN45 cells (Homo sapiens, MKN-45, 120 h) is 8.52. The “MKN45 Cell Prolif. 120 hr YMin (%)” value in the assay with MKN45 cells turned out to be 9.9%. In the assay on MDA-MB-231 cells (setting [1]), the pEC50 was 6.68. The “MDA-MB 231 Cell Prolif. 120 hr YMin (%)” value in the assay on MDA-MB-231 cells came out at 74.8%.

With `COC[C@@H]1CN(Cc2cc(F)c3nc(N4CCC45COC5)ncc3c2)C[C@H]1Oc1ccc2c(c1)CN([C@H]1CCC(=O)NC1=O)C2=O` [Example 74, (3S)-3-(5-{[(3S,4S)-1-[(8-fluoro-2-{6-oxa-1-azaspiro[3.3]heptan-1-yl}quinazolin-6-yl)methyl]-4-(methoxymethyl)pyrrolidin-3-yl]oxy}-1-oxo-2,3-dihydro-1H-isoindol-2-yl)piperidine-2,6-dione], on WEE1, the DC50 came out at 2 nM. On WEE1, the “293T-LentiX WEE1-ePL Degradation 4 hr YMin (%)” value came to 31.4%. The negative logarithm of the EC50 (pEC50) in the assay with MKN45 cells (Homo sapiens, MKN-45, 120 h) is 8.52; in the assay on MDA-MB-231 cells (setting [1]), 7.82. The “MKN45 Cell Prolif. 120 hr YMin (%)” value in the assay on MKN45 cells came to 10.6%. For the same compound, the “MDA-MB 231 Cell Prolif. 120 hr YMin (%)” value with MDA-MB-231 cells amounted to 55.8%.

Regarding `COC[C@@H]1CN(Cc2cc(F)c3nc(N4CCC(O)CC4)ccc3c2)C[C@H]1Oc1ccc2c(c1)CN([C@H]1CCC(=O)NC1=O)C2=O` [Example 64, (S)-3-(5-(((3S,4S)-1-((8-fluoro-2-(4-hydroxypiperidin-1-yl)quinolin-6-yl)methyl)-4-(methoxymethyl)pyrrolidin-3-yl)oxy)-1-oxoisoindolin-2-yl)piperidine-2,6-dione], the DC50 on WEE1 stood at 1 nM. At WEE1, the “293T-LentiX WEE1-ePL Degradation 4 hr YMin (%)” value is 28.5%. For the same compound, the negative-log EC50 (pEC50) in the assay with MKN45 cells (Homo sapiens, MKN-45, 120 h) is 8.70; in the assay on MDA-MB-231 cells (setting [1]), 7.64. Further, the “MKN45 Cell Prolif. 120 hr YMin (%)” value in the assay on MKN45 cells stood at 8.8%. Also, the “MDA-MB 231 Cell Prolif. 120 hr YMin (%)” value in the assay with MDA-MB-231 cells is 17.1%.

As for `COC[C@@H]1CN(Cc2cnc3nc(C4CCOCC4)ncc3c2)C[C@H]1Oc1ccc2c(c1)CN([C@H]1CCC(=O)NC1=O)C2=O` [Example 134, (3S)-3-(5-{[(3S,4S)-4-(methoxymethyl)-1-{[2-(oxan-4-yl)pyrido[2,3-d]pyrimidin-6-yl]methyl}pyrrolidin-3-yl]oxy}-1-oxo-2,3-dihydro-1H-isoindol-2-yl)piperidine-2,6-dione], at WEE1, the DC50 was 37 nM and the “293T-LentiX WEE1-ePL Degradation 4 hr YMin (%)” value was 32.0%. Also, in the assay with MKN45 cells (Homo sapiens, MKN-45, 120 h), the negative logarithm of the EC50 (pEC50) was 6.97. In addition, the “MKN45 Cell Prolif. 120 hr YMin (%)” value with MKN45 cells is listed as 12.9%. Further, the negative-log EC50 (pEC50) in the assay with MDA-MB-231 cells (setting [1]) was 5.85. Also, the “MDA-MB 231 Cell Prolif. 120 hr YMin (%)” value with MDA-MB-231 cells is recorded as 75.6%.

As to `O=C1CCC(N2C(=O)c3ccc(O[C@H]4CCN(Cc5cc(F)c6nc(C7CCOCC7)ccc6c5)C4)cc3C2=O)C(=O)N1` (single isomer, unassigned) [Example 26, 2-((R*)-2,6-dioxopiperidin-3-yl)-5-(((S)-1-((8-fluoro-2-(tetrahydro-2H-pyran-4-yl)quinolin-6-yl)methyl)pyrrolidin-3-yl)oxy)isoindoline-1,3-dione], on WEE1, the DC50 was 8 nM and the “293T-LentiX WEE1-ePL Degradation 4 hr YMin (%)” value came out at 32.8%. Besides, in the assay on MKN45 cells, the “MKN45 Cell Prolif. 120 hr YMin (%)” value is on record as 12.3% and the negative logarithm of the EC50 (pEC50) was 7.41. Besides, in the assay on MDA-MB-231 cells, the “MDA-MB 231 Cell Prolif. 120 hr YMin (%)” value is reported as 53.8% and the negative-log EC50 (pEC50) is 6.00.

Take `COC[C@@H]1CN(Cc2cc(F)c3nc(N4CCCC4=O)ncc3c2)C[C@H]1Oc1ccc2c(c1)CN([C@H]1CCC(=O)NC1=O)C2=O` [Example 61, (3S)-3-(5-{[(3S,4S)-1-{[8-fluoro-2-(2-oxopyrrolidin-1-yl)quinazolin-6-yl]methyl}-4-(methoxymethyl)pyrrolidin-3-yl]oxy}-1-oxo-2,3-dihydro-1H-isoindol-2-yl)piperidine-2,6-dione]: at WEE1, the DC50 stood at 25 nM and the “293T-LentiX WEE1-ePL Degradation 4 hr YMin (%)” value was 29.3%. Moreover, the negative-log EC50 (pEC50) in the assay with MKN45 cells (Homo sapiens, MKN-45, 120 h) was 8.05. Besides, the “MKN45 Cell Prolif. 120 hr YMin (%)” value in the assay with MKN45 cells worked out at 12.0%. For the same compound, the negative logarithm of the EC50 (pEC50) in the assay on MDA-MB-231 cells (setting [1]) is 7.01. Moreover, the “MDA-MB 231 Cell Prolif. 120 hr YMin (%)” value in the assay on MDA-MB-231 cells worked out at 41.3%.

Regarding `COC[C@@H]1CN(Cc2ccc3nc(N4CCN(C(C)=O)C5(CC5)C4)ccc3c2)C[C@H]1Oc1ccc2c(c1)CN([C@H]1CCC(=O)NC1=O)C2=O` [Example 89, (3S)-3-(5-{[(3S,4S)-1-[(2-{4-acetyl-4,7-diazaspiro[2.5]octan-7-yl}quinolin-6-yl)methyl]-4-(methoxymethyl)pyrrolidin-3-yl]oxy}-1-oxo-2,3-dihydro-1H-isoindol-2-yl)piperidine-2,6-dione], on WEE1, the DC50 stood at 1 nM and the “293T-LentiX WEE1-ePL Degradation 4 hr YMin (%)” value is 30.2%. For the same compound, the pEC50 in the assay with MKN45 cells (Homo sapiens, MKN-45, 120 h) is 9.00. The “MKN45 Cell Prolif. 120 hr YMin (%)” value with MKN45 cells stood at 8.4%. Also, the negative logarithm of the EC50 (pEC50) with MDA-MB-231 cells (setting [1]) is 8.05. For the same compound, the “MDA-MB 231 Cell Prolif. 120 hr YMin (%)” value in the assay with MDA-MB-231 cells was 16.8%.

As to `COC[C@@H]1CN(Cc2cc(F)c3nc(C4CN(CC(F)(F)F)C4)ncc3c2)C[C@H]1Oc1ccc2c(c1)CN([C@H]1CCC(=O)NC1=O)C2=O` [Example 46, (3S)-3-(5-{[(3S,4S)-1-({8-fluoro-2-[1-(2,2,2-trifluoroethyl)azetidin-3-yl]quinazolin-6-yl}methyl)-4-(methoxymethyl)pyrrolidin-3-yl]oxy}-1-oxo-2,3-dihydro-1H-isoindol-2-yl)piperidine-2,6-dione], on WEE1, the DC50 stood at 4 nM and the “293T-LentiX WEE1-ePL Degradation 4 hr YMin (%)” value is given as 26.2%. In addition, in the assay on MKN45 cells (Homo sapiens, MKN-45, 120 h), the negative logarithm of the EC50 (pEC50) was 8.70. Besides, the “MKN45 Cell Prolif. 120 hr YMin (%)” value with MKN45 cells is listed as 8.7%. In addition, in the assay on MDA-MB-231 cells (setting [1]), the negative-log EC50 (pEC50) was 7.74. For the same compound, the “MDA-MB 231 Cell Prolif. 120 hr YMin (%)” value with MDA-MB-231 cells is reported as 17.7%.

As for `COC[C@@H]1CN(Cc2cc(F)c3nc(N4CCC45COC5)ccc3c2)C[C@H]1Oc1ccc2c(c1)CN([C@H]1CCC(=O)NC1=O)C2=O` [Example 75, (3S)-3-(5-{[(3S,4S)-1-[(8-fluoro-2-{6-oxa-1-azaspiro [3.3]heptan-1-yl}quinolin-6-yl)methyl]-4-(methoxymethyl)pyrrolidin-3-yl]oxy}-1-oxo-2,3-dihydro-1H-isoindol-2-yl)piperidine-2,6-dione], on WEE1, the “293T-LentiX WEE1-ePL Degradation 4 hr YMin (%)” value is 31.2%. Besides, the pEC50 in the assay on MKN45 cells (Homo sapiens, MKN-45, 120 h) is 9.00; in the assay with MDA-MB-231 cells (setting [1]), 7.96. Further, in the assay on MKN45 cells, the “MKN45 Cell Prolif. 120 hr YMin (%)” value amounted to 10.1%. Also, in the assay with MDA-MB-231 cells, the “MDA-MB 231 Cell Prolif. 120 hr YMin (%)” value worked out at 56.6%.

As to `COC[C@@H]1CN(Cc2cc(F)c3nc(COC4CCOCC4)ncc3c2)C[C@H]1Oc1ccc2c(c1)CN([C@H]1CCC(=O)NC1=O)C2=O` [Example 42, (3S)-3-(5-{[(3S,4S)-1-({8-fluoro-2-[(oxan-4-yloxy)methyl]quinazolin-6-yl}methyl)-4-(methoxymethyl)pyrrolidin-3-yl]oxy}-1-oxo-2,3-dihydro-1H-isoindol-2-yl)piperidine-2,6-dione], at WEE1, the DC50 is 8 nM and the “293T-LentiX WEE1-ePL Degradation 4 hr YMin (%)” value is 31.5%. Also, the negative logarithm of the EC50 (pEC50) in the assay on MKN45 cells (Homo sapiens, MKN-45, 120 h) was 8.05. In addition, the “MKN45 Cell Prolif. 120 hr YMin (%)” value in the assay with MKN45 cells was found to be 12.2%. Also, in the assay with MDA-MB-231 cells (setting [1]), the pEC50 is 6.91. For the same compound, the “MDA-MB 231 Cell Prolif. 120 hr YMin (%)” value in the assay on MDA-MB-231 cells was determined as 33.0%.
